Experimental data reported in patent US6737383B1, “Herbicidal oxadiazolidines” (priority 1999, dated 2004).

Tests used:
velvetleaf = assay: Test B pre/postemergence velvetleaf; assay type: in vivo, Abutilon theophrasti
Method in brief: (§1)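 Herbicidal effect was estimated by eye on a ten-point control scale after plants spent twelve to sixteen days in a greenhouse following soil or foliar treatment. Foliar sprays targeted plants at one to four leaves; all doses were formulated in a non-phytotoxic solvent with surfactant.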

soybean = assay: Test B pre/postemergence soybean; assay type: in vivo, Glycine max
Method in brief: as §1

duck salad = assay: Test B flood test duck salad; assay type: in vivo, Heteranthera limosa
Method in brief: (§2)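 Flood test on plants grown to the 2-leaf stage; treated plants kept in greenhouse twelve to sixteen days, then visually rated against controls on a 0 (no effect) to 10 (complete control) scale.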

smallflower flatsedge = assay: Test B flood test smallflower flatsedge; assay type: in vivo, Cyperus difformis
Method in brief: as §2

[1] = Postemergence, Rate 62 g/ha, scale 0 to 10, 0 is no effect, 10 is complete control
[2] = Preemergence, Rate 125 g/ha, scale of 0 to 10 where 0 is no effect and 10 is complete control
[3] = Preemergence, Rate 250 g/ha, scale 0 (no effect) to 10 (complete control)
[4] = Rate 62 g/ha, Preemergence, scale 0 to 10
[5] = Rate 250 g/ha, Postemergence, scale 0 to 10, 0 is no effect, 10 is complete control
[6] = Rate 500 g/ha, Postemergence, scale 0 to 10, 0 is no effect, 10 is complete control
[7] = Rate 500 g/ha, Preemergence, scale 0 to 10 (0 no effect, 10 complete control)
[8] = Pre-emergence, Rate 62 g/ha, scale 0 to 10, 0 is no effect, 10 is complete control
[9] = Rate 125 g/ha, Pre-emergence section (flood test species), scale 0 to 10, 0 no effect, 10 complete control
[10] = Rate 250 g/ha, Pre-emergence (flood test species), scale 0 to 10, 0 is no effect, 10 is complete control
[11] = Rate 500 g/ha, Pre-emergence section of Table B, 0 to 10 scale (0 no effect, 10 complete control)
[12] = Postemergence, Rate 250 g/ha, scale 0 to 10, 0 is no effect, 10 is complete control
[13] = Postemergence, Rate 500 g/ha, scale of 0 to 10 where 0 is no effect and 10 is complete control
[14] = Preemergence, Rate 62 g/ha, scale 0 to 10 (0 no effect, 10 complete control)
[15] = Preemergence, Rate 250 g/ha, scale 0 to 10, 0 is no effect, 10 is complete control
[16] = Preemergence, Rate 500 g/ha, scale 0 to 10, 0 is no effect, 10 is complete control
[17] = Rate 125 g/ha, Postemergence, scale 0 to 10, 0 is no effect, 10 is complete control
[18] = Postemergence section (flood test species), Rate 500 g/ha, scale of 0 to 10 where 0 is no effect and 10 is complete control
[19] = Rate 125 g/ha, Postemergence section (flood test species), scale 0 to 10, 0 is no effect, 10 is complete control
[20] = flood test species, listed under Postemergence, Rate 250 g/ha, scale 0 to 10, 0 is no effect, 10 is complete control
[21] = Postemergence, Rate 250 g/ha, scale 0 to 10
[22] = Preemergence, Rate 62 g/ha, scale of 0 to 10 where 0 is no effect and 10 is complete control
[23] = Rate 62 g/ha, Postemergence, scale 0 to 10, 0 no effect, 10 complete control
[24] = Rate 62 g/ha, flood test species, Pre-emergence, visual evaluation after twelve to sixteen days
[25] = Rate 125 g/ha, under heading Pre-emergence, flood test species, visual evaluation after twelve to sixteen days
[26] = Rate 500 g/ha, Pre-emergence, flood test species, scale 0 to 10 (0 no effect, 10 complete control)

## CC(C)N(C(=O)n1oc(=O)n(CC2=NOCCO2)c1=O)c1ccc(F)cc1F [Compound 758]
velvetleaf; [1]
  Plant response rating, Velvetleaf: 5
velvetleaf; [2]
  Plant response rating, Velvetleaf: 4
velvetleaf; [3]
  Velvetleaf plant response rating: 4
velvetleaf; [4]
  Velvetleaf plant response rating: 2
velvetleaf; [5]
  Velvetleaf plant response rating: 6
velvetleaf; [6]
  Velvetleaf plant response rating: 7
velvetleaf; [7]
  Velvetleaf plant response rating: 7
soybean; [1]
  Plant response rating, Soybean: 4
soybean; [2]
  Plant response rating, Soybean: 0
soybean; [3]
  Soybean plant response rating: 0
soybean; [4]
  Soybean plant response rating: 0
soybean; [5]
  Soybean plant response rating: 5
soybean; [6]
  Soybean plant response rating: 5
soybean; [7]
  Soybean plant response rating: 0
Duck salad; [8]
  Ducksalad plant response rating: 0
Duck salad; [9]
  Ducksalad plant response rating: 0
Duck salad; [10]
  Ducksalad plant response rating: 0
Duck salad; [11]
  Ducksalad plant response rating: 0
Smallflower flatsedge; [8]
  S. Flatsedge plant response rating: 0
Smallflower flatsedge; [9]
  S. Flatsedge plant response rating: 0
Smallflower flatsedge; [10]
  S. Flatsedge plant response rating: 0
Smallflower flatsedge; [11]
  S. Flatsedge plant response rating: 0

## CC(C)N(C(=O)n1oc(=O)n(C(CF)CF)c1=O)c1ccccc1 [Compound 421]
velvetleaf; [12]
  Plant response rating, Velvetleaf: 4
velvetleaf; [13]
  Velvetleaf plant response rating: 7
velvetleaf; [14]
  Plant response rating, Velvetleaf: 8
velvetleaf; [2]
  Plant response rating, Velvetleaf: 9
velvetleaf; [15]
  Velvetleaf plant response rating: 10
velvetleaf; [16]
  Velvetleaf plant response rating: 10
velvetleaf; [17]
  Velvetleaf plant response rating: 0
soybean; [12]
  Plant response rating, Soybean: 7
soybean; [13]
  Soybean plant response rating: 8
soybean; [14]
  Plant response rating, Soybean: 4
soybean; [2]
  Plant response rating, Soybean: 4
soybean; [15]
  Soybean plant response rating: 5
soybean; [16]
  Soybean plant response rating: 10
soybean; [17]
  Soybean plant response rating: 6
Duck salad; [18]
  Ducksalad plant response rating: 2
Duck salad; Rate 62 g/ha, Postemergence (flood test species), scale of 0 to 10 where 0 is no effect and 10 is complete control
  Ducksalad plant response rating: 0
Duck salad; [19]
  Ducksalad plant response rating: 0
Duck salad; [20]
  Plant response rating, Ducksalad: 2
Smallflower flatsedge; [18]
  S. Flatsedge plant response rating: 0
Smallflower flatsedge; [19]
  S. Flatsedge plant response rating: 0
Smallflower flatsedge; [20]
  Plant response rating, S. Flatsedge: 0

## C=CC(OC)n1c(=O)on(C(=O)N(c2ccc(F)cc2)C(C)C)c1=O (centres unmarked) [Compound 452]
velvetleaf; [21]
  Velvetleaf plant response rating: 0
velvetleaf; [22]
  Plant response rating, Velvetleaf: 0
velvetleaf; [2]
  Plant response rating, Velvetleaf: 0
velvetleaf; [15]
  Velvetleaf plant response rating: 0
velvetleaf; [16]
  Velvetleaf plant response rating: 0
velvetleaf; [23]
  Velvetleaf plant response rating: 0
velvetleaf; [17]
  Velvetleaf plant response rating: 0
soybean; [21]
  Soybean plant response rating: 1
soybean; [22]
  Plant response rating, Soybean: 0
soybean; [2]
  Plant response rating, Soybean: 0
soybean; [15]
  Soybean plant response rating: 0
soybean; [16]
  Soybean plant response rating: 0
soybean; [23]
  Soybean plant response rating: 1
soybean; [17]
  Soybean plant response rating: 1
Duck salad; [24]
  Plant response rating, Ducksalad (0 to 10 scale, 0 is no effect, 10 is complete control): 0
Duck salad; [25]
  Ducksalad plant response rating (0 to 10 scale, 0 is no effect, 10 is complete control): 0
Duck salad; [10]
  Ducksalad plant response rating: 0
Duck salad; [26]
  Ducksalad plant response rating: 0
Smallflower flatsedge; [24]
  Plant response rating, S. Flatsedge (0 to 10 scale, 0 is no effect, 10 is complete control): 0
Smallflower flatsedge; [25]
  S. Flatsedge plant response rating (0 to 10 scale, 0 is no effect, 10 is complete control): 0
Smallflower flatsedge; [10]
  S. Flatsedge plant response rating: 0
Smallflower flatsedge; [26]
  S. Flatsedge plant response rating: 0
